Test results reported in patent publication US20130158112A1, “COMPOSITIONS AND METHODS FOR INHIBITING BETA AMYLOID SECRETION” (priority 2011, published 2013).
Like-named read-outs stand apart in the source and are kept apart here.

How the values were obtained:
[1] = system: Aβ secretion; assay: Secreted total Aβ ELISA in conditioned media of H4βAPP695 wt cells; type: cell-based, human; conditions: for inhibition at 10 µM / inhibition at 30 µM: Homo sapiens, 24 h, H4βAPP695 wt cells; for inhibition at 30 µM: read-out: Total Aβ (% decrease) 30 μM Mean; for Aβ secretion inhibiting activity (structure activity summary): in words
Procedure: H4βAPP695 wt cells, a human […] cell line stably transfected with a wtβAPP695 expression vector construct under the control of a CMV promoter (kindly provided by Dr. Chris Eckman from Mayo Clinic, Florida) were cultured as previously described. Twenty-four hours before drug treatment, the media was replaced with serum-free media. Cells were then incubated with drugs (dissolved in DMSO) or vehicle for 24 h for collection of conditioned media and cell lysates. For the PKC inhibitors experiment, three inhibitors were treated 30 min prior to drug challenge. Primary cortical neurons were prepared from embryonic day 18 APP and presenilin 1 (APPswe, PSEN1dE9) transgenic mice on the C57BL/6 genetic background (Jackson Laboratories, strain no. 5864) as previously described. THLE-3 human hepatoma cells (from ATCC) were plated in 24-well plates that were precoated with 10 μg/mL bovine serum albumin, 10 μg/mL fibronectin, and 30 μg/mL bovine type I collagen. The cells were grown in BEGM media (Clonetics) until confluent and treated with drugs at 20 μM for 24 h. This conditioned media was harvested, diluted 1:1 in serum-free medium, and incubated with H4βAPP695 wt cells for 24 h prior to analysis of secreted Aβ, which was compared to the effect of 10 μM drug treatments without prior incubation with the THLE-3 cells. Caco-2 cells (ATCC) were plated in 12-well plates with Transwell inserts (Costar) at 70000 cells per well and grown for 21 days. The media volume of the apical and basal chambers was 0.5 and 1.5 mL, respectively. Transepithelial resistance was measured in each well and found to be >160 Ω/cm^2. Drugs at 40 μM and 20 μg/mL of lucifer yellow were added in serum-free medium to the apical chamber. Four hours later, the basal chamber media was harvested and used to measure lucifer yellow fluorescence to confirm monolayer integrity as well as for treatment of H4βAPP695 wt cells for 24 h prior to analysis of secreted Aβ, which was compared to the effect of direct addition of 10 μM of the corresponding drug.

[2] = system: H4βAPP695 wt cells; assay: Cytotoxicity by total cell protein content (BCA) of H4βAPP695 wt cells; conditions: cytotoxicity
Procedure: Cells were washed with cold phosphate buffered saline (PBS) and lysed on ice by vigorous mixing over 15 min with RIPA buffer containing 50 mM Tris-HCl (pH 8.0), 150 mM sodium chloride, 1% NP-40, 0.5% sodium deoxycholate, and 0.1% SDS, supplemented with 10% protease inhibitor cocktail and 2 mM PMSF. After centrifugation at 14000 g for 30 min to remove nuclei and other debris at 4° C., the protein content of the supernatants was measured using the BCA assay kit (Pierce).
The initial screen was performed in 96-well plates with drugs distributed by the hanging drop method yielding estimated drug levels of 10-25 μM. Total Aβ levels in the 24 h conditioned media were measured by a sandwich ELISA assay, and cytotoxicity was assessed by methylene blue staining of the cells in the wells, as previously described.

[3] = relative to vehicle treated control cells, read-out: % β Decrease
[4] = read-out: Total Aβ (% decrease) 10 μM Mean

O=C(NCCSCc1cccc(Cl)c1)c1ccccc1Cl [Compound 3]
inhibition at 10 µM [1, 3]: 4.7%

O=C(NCCSCc1cccc(NC(=O)C2CC2)c1)c1c(Cl)cccc1Cl [Compound 69, 2,6-Dichloro-N-(2-[3-(cyclopropanecarbonyl-amino)-benzylsulfanyl]-ethyl)-benzamide]
Cell protein (% decrease) 10 μM Mean [2]: 3%
Cell protein (% decrease) 30 μM Mean [2]: 3.2%
inhibition at 10 µM [1, 4]: -21.4%
inhibition at 30 µM [1]: -2%
Aβ secretion inhibiting activity (structure activity summary) [1]: did not yield good activity
melting point: 46 to 47 °C

COc1cccc(CSCCNC(=O)c2c(OC)cccc2OC)c1 [Compound 34, 2,6-Dimethoxy-N-[2-(3-methoxy-benzylsulfanyl)-ethyl]-benzamide]
Cell protein (% decrease) 10 μM Mean [2]: 0.5%
Cell protein (% decrease) 30 μM Mean [2]: 3.9%
inhibition at 10 µM [1, 4]: 6.2%
inhibition at 30 µM [1]: -0.6%
Aβ secretion inhibiting activity (structure activity summary) [1]: not well tolerated
melting point: 41 to 43 °C

N#Cc1cccc(CSCCNC(=O)c2c(Cl)cccc2Cl)c1 [Compound 38, 2,6-Dichloro-N-[2-(3-cyano-benzylsulfanyl)-ethyl]-benzamide]
Cell protein (% decrease) 10 μM Mean [2]: −4.8%
Cell protein (% decrease) 30 μM Mean [2]: 4.3%
inhibition at 10 µM [1, 4]: 20%
inhibition at 30 µM [1]: 38.7%
Aβ secretion inhibiting activity (structure activity summary) [1]: did not yield good activity
melting point: 123 to 125 °C

O=C(NCCCCNC(=O)c1ccccc1Br)c1ccccc1Br [Compound 4]
inhibition at 10 µM [1, 3]: 7.9%

O=Cc1cccc(CSCCNC(=O)c2c(Cl)cccc2Cl)c1 [Compound 49, 2,6-Dichloro-N-[2-(3-formyl-benzylsulfanyl)-ethyl]-benzamide]
Cell protein (% decrease) 10 μM Mean [2]: 1.5%
Cell protein (% decrease) 30 μM Mean [2]: −2.1%
inhibition at 10 µM [1, 4]: 19.9%
inhibition at 30 µM [1]: 36.4%
Aβ secretion inhibiting activity (structure activity summary) [1]: did not yield good activity
melting point: 63 to 65 °C

O=C(NCCSCc1ccc(O)cc1)c1c(Cl)cccc1Cl [Compound 28, 2,6-Dichloro-N-[2-(4-hydroxy-benzylsulfanyl)-ethyl]-benzamide]
Cell protein (% decrease) 10 μM Mean [2]: 8.7%
Cell protein (% decrease) 30 μM Mean [2]: 4.4%
inhibition at 10 µM [1, 4]: 13.1%
inhibition at 30 µM [1]: 56.7%
Aβ secretion inhibiting activity (structure activity summary) [1]: loss of activity
melting point: 138 to 140 °C

O=C(NCCSCc1ccc(F)cc1)c1c(F)cccc1Cl [Compound 22]
inhibition at 10 µM [1, 3]: 27.3%

O=C(NCCSCc1cccc(Cl)c1)c1c(C(F)(F)F)cccc1C(F)(F)F [Compound 74, N-[2-(3-Chloro-benzylsulfanyl)-ethyl]-2,6-bis-trifluoromethyl-benzamide]
Cell protein (% decrease) 10 μM Mean [2]: −4.2%
Cell protein (% decrease) 30 μM Mean [2]: −0.4%
inhibition at 10 µM [1, 4]: 6.2%
inhibition at 30 µM [1]: 13.5%
Aβ secretion inhibiting activity (structure activity summary) [1]: not well tolerated
melting point: 93 to 94 °C

O=C(NCCSCc1ccccc1Cl)c1ccccc1Cl [Compound 16]
inhibition at 10 µM [1, 3]: 4%

O=C(NCC[S+]([O-])Cc1cccc(O)c1)c1c(Cl)cccc1Cl (centres unmarked) [Compound 33, 2,6-Dichloro-N-[2-(3-hydroxy-phenylmethanesulfinyl)-ethyl]-benzamide]
Cell protein (% decrease) 10 μM Mean [2]: 2.8%
Cell protein (% decrease) 30 μM Mean [2]: 4.4%
inhibition at 10 µM [1, 4]: -23.7%
inhibition at 30 µM [1]: 15.9%
Aβ secretion inhibiting activity (structure activity summary) [1]: No tested substitutions in the linker region were well tolerated
melting point: 165 to 166 °C

O=C(NCCSCc1cccc(OCCOCCO)c1)c1c(Cl)cccc1Cl [Compound 70, 2,6-Dichloro-N-(2-(3-[2-(2-hydroxy-ethoxy)-ethoxy]-benzylsulfanyl)-ethyl)-benzamide]
Cell protein (% decrease) 10 μM Mean [2]: −7.3%
Cell protein (% decrease) 30 μM Mean [2]: 6.1%
inhibition at 10 µM [1, 4]: 17.4%
inhibition at 30 µM [1]: 24.3%
Aβ secretion inhibiting activity (structure activity summary) [1]: did not yield good activity

NC(=O)c1c(Cl)cccc1CSCC(=O)c1c(Cl)cccc1Cl [Compound 61, 2-Chloro-6-((2-(2,6-dichlorophenyl)-2-oxoethylthio)methyl)benzamide]
Cell protein (% decrease) 10 μM Mean [2]: 2.5%
Cell protein (% decrease) 30 μM Mean [2]: −5.6%
inhibition at 10 µM [1, 4]: 44.7%
inhibition at 30 µM [1]: 49.7%
Aβ secretion inhibiting activity (structure activity summary) [1]: could be tolerated

Clc1cccc(CSCCNCc2c(Cl)cccc2Cl)c1 [Compound 57, [2-(3-Chloro-benzylsulfanyl)-ethyl]-(2,6-dichloro-benzyl)-amine]
Cell protein (% decrease) 10 μM Mean [2]: −3.6%
Cell protein (% decrease) 30 μM Mean [2]: 6.6%
inhibition at 10 µM [1, 4]: 45.2%
inhibition at 30 µM [1]: 45.6%
Aβ secretion inhibiting activity (structure activity summary) [1]: No tested substitutions in the linker region were well tolerated

O=C(NCCSCc1ccc(Cl)cc1)c1ccccc1Cl [Compound 17]
inhibition at 10 µM [1, 3]: -12%
